Some test systems named below: K562; SF-295; SK-MEL-2; MOLT-4; COLO 205; NCI-H460; TK-10; SN12C; SF-268; M14; UO-31; MCF7; HCC 2998; EKVX; KM12; SK-MEL-5; MDA-N; NCI/ADR-RES; HT-29; A549.
Common to all, as to assay: NCI anticancer screen, dose series, 48 h

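Assay format: 96-well plates, 48-hour exposure. Abbreviation: GI50, concentration required for 50% inhibition of growth.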 Active and inactive are the calls of the source. No stated cut-off is given here; in the data, active = GI50 up to about 1.1 µM and inactive = higher. Non-standard residues stand in square brackets, D forms with d. Residues, ends and D or L forms follow the SMILES beside them. ξ: configuration not given here. *: point of attachment. NMeF = CN[C@@H](Cc1ccccc1)C(=O)O; NMeN = CN[C@@H](CC(N)=O)C(=O)O; NMeV = CN[C@H](C(=O)O)C(C)C; ξNMeV = CNC(C(=O)O)C(C)C; Boc = CC(C)(C)OC(=O)*; ξNMeA = CNC(C)C(=O)O; ξV = CC(C)C(N)C(=O)O

For the molecule `Cc1cc2oc(=O)c(Cl)c(Cl)c2c(C)c1Cl`, the GI50 is 1.95 µM (inactive) in the experiment with K562; 14.4 µM (inactive) in the experiment with SF-295; 4.44 µM (inactive) in the experiment on SK-MEL-2; 2.1 µM (inactive) with MOLT-4; 2.56 µM (inactive) in the experiment on COLO 205; 16.7 µM (inactive) in the experiment on NCI-H460. For the same molecule, the GI50 in the experiment on TK-10 is 14.8 µM (inactive); in the experiment with SN12C it was 11.5 µM (inactive); in the experiment on SF-268 it was 3.22 µM (inactive); in the experiment on M14 it was 10.4 µM (inactive); with UO-31, 12.7 µM (inactive); in the experiment on MCF7, 5.64 µM (inactive). Further, the GI50 in the experiment with HCC 2998 was 5.51 µM (inactive); with EKVX, 14.8 µM (inactive); with KM12, 15.1 µM (inactive); with SK-MEL-5, 6.93 µM (inactive); in the experiment on MDA-N, 2.92 µM (inactive); in the experiment with NCI/ADR-RES it was 5.5 µM (inactive). Further, the GI50 was 4.78 µM (inactive) with HT-29 and 15.7 µM (inactive) in the experiment on A549.
For the molecule `COC(=O)C1CCC(=O)N1C(c1ccc(OC)cc1)c1ccc(OC)cc1` (stereo not given), the GI50 in the experiment with K562, in the experiment with SF-295, in the experiment on SK-MEL-2, with MOLT-4, with COLO 205 and in the experiment on NCI-H460 was > 100 µM (inactive) throughout. For the same molecule, the GI50 with TK-10, with SN12C, in the experiment with SF-268, with M14, with UO-31 and with MCF7 was > 100 µM (inactive) in each case. The GI50 with HCC 2998, in the experiment with EKVX, with KM12, in the experiment with SK-MEL-5, in the experiment on MDA-N and in the experiment on NCI/ADR-RES was > 100 µM (inactive) throughout. Moreover, the GI50 with HT-29 and in the experiment on A549 was > 100 µM (inactive) throughout.
Take `CN1C/C(=C\c2ccc(Cl)cc2)C(=O)/C(=C/c2ccc(Cl)cc2)C1`: the GI50 is 0.33 µM (active) in the experiment with K562; 0.667 µM (active) in the experiment with SF-295; > 88.9 µM (inactive) with SK-MEL-2; 0.326 µM (active) in the experiment on MOLT-4; 0.979 µM (active) in the experiment on COLO 205; 1.17 µM (inactive) in the experiment with NCI-H460. In addition, the GI50 in the experiment with TK-10 is 8.75 µM (inactive); with SN12C, 0.771 µM (active); with SF-268 it was 1.63 µM (inactive); with M14, 1.73 µM (inactive); in the experiment with UO-31, 1.77 µM (inactive); in the experiment with MCF7, 0.453 µM (active). For the same molecule, the GI50 with HCC 2998 was 2.33 µM (inactive); in the experiment on EKVX it was 15.6 µM (inactive); in the experiment with KM12, 0.774 µM (active); with SK-MEL-5, 2.69 µM (inactive); in the experiment on MDA-N, 0.861 µM (active); in the experiment with NCI/ADR-RES it was 1.37 µM (inactive). The values for the GI50 with HT-29 and with A549 were 0.294 µM (active) and 2.2 µM (inactive), respectively.
On to `CC(=O)NC1=CC(=O)c2cc(C)cc(O)c2C1=O`, for which the GI50 in the experiment with K562 was 3.74 µM (inactive); in the experiment on SF-295, 19.2 µM (inactive); in the experiment on SK-MEL-2 it was 4.72 µM (inactive); in the experiment on MOLT-4 it was 4.85 µM (inactive); in the experiment with COLO 205, 5.5 µM (inactive); with NCI-H460, 14.9 µM (inactive). Also, the GI50 in the experiment with TK-10 is 21 µM (inactive); with SN12C it was 5.09 µM (inactive); in the experiment with SF-268, 9.33 µM (inactive); in the experiment on M14, 1.75 µM (inactive); in the experiment on UO-31, 7.59 µM (inactive); in the experiment on MCF7 it was 2.39 µM (inactive). In addition, the GI50 is 2.03 µM (inactive) in the experiment on HCC 2998; 17.2 µM (inactive) in the experiment with EKVX; 9.84 µM (inactive) in the experiment on KM12; 1.14 µM (inactive) in the experiment with SK-MEL-5; 1.53 µM (inactive) in the experiment with MDA-N; 5.77 µM (inactive) in the experiment with NCI/ADR-RES. Moreover, the GI50 in the experiment on HT-29 is 16.9 µM (inactive); in the experiment on A549, 7.5 µM (inactive).
With `Cc1cc2c(c3oc(C(O)(CO)C4CO4)cc(=O)c13)C(=O)c1c(O)cccc1C2=O` (stereo not given), the GI50 in the experiment with K562 was 0.000982 µM (active); in the experiment on SF-295, 0.00139 µM (active); with SK-MEL-2, 0.00151 µM (active); in the experiment with MOLT-4, 0.000145 µM (active); in the experiment with COLO 205, 0.00163 µM (active); in the experiment with NCI-H460, 0.000372 µM (active). Further, the GI50 in the experiment with TK-10 is 0.00244 µM (active); with SN12C it was 0.000674 µM (active); in the experiment on SF-268, 0.00156 µM (active); in the experiment on M14, 0.00168 µM (active); in the experiment with UO-31, 0.000154 µM (active); in the experiment with MCF7 it was 0.000435 µM (active). The GI50 in the experiment with HCC 2998 was 0.00131 µM (active); with EKVX, 0.0023 µM (active); in the experiment with KM12, 0.00104 µM (active); with SK-MEL-5, 0.002 µM (active); in the experiment with MDA-N, 0.00131 µM (active); in the experiment on NCI/ADR-RES, 0.00129 µM (active). In addition, the GI50 in the experiment with HT-29 was 0.00104 µM (active); in the experiment with A549, 0.00149 µM (active).
For `OC(O)(C(F)(F)F)C(F)(F)F`, the GI50 with K562, with SF-295, in the experiment with SK-MEL-2, in the experiment on MOLT-4, in the experiment on COLO 205 and in the experiment on NCI-H460 was > 100 µM (inactive) in each case. Besides, the GI50 with TK-10, with SN12C, in the experiment on SF-268, in the experiment on M14, in the experiment with UO-31 and in the experiment with MCF7 was > 100 µM (inactive) in each case. Besides, the GI50 in the experiment with HCC 2998, in the experiment on EKVX, with KM12, with SK-MEL-5, in the experiment on MDA-N and with NCI/ADR-RES was > 100 µM (inactive) in each case. Further, the GI50 in the experiment on HT-29 and in the experiment with A549 was > 100 µM (inactive) throughout.
For the molecule `COC(=O)C(C)N(C)C(=O)[C@H](CC(N)=O)N(C)C(=O)[C@@H]1CCCN1C(=O)[C@H](C(C)C)N(C)C(=O)C(C(C)C)N(C)C(=O)[C@H](Cc1ccccc1)N(C)C(=O)C(NC(=O)OC(C)(C)C)C(C)C` (stereo not given in full) (Boc-[ξV][NMeF][ξNMeV][NMeV]P[NMeN][ξNMeA]-OMe), the GI50 was 16.9 µM (inactive) with K562; 12 µM (inactive) in the experiment with SF-295; 9.1 µM (inactive) in the experiment on SK-MEL-2; 8.95 µM (inactive) with MOLT-4; 13.3 µM (inactive) in the experiment on COLO 205; 37.2 µM (inactive) in the experiment with NCI-H460. Besides, the GI50 with TK-10 is 21.2 µM (inactive); with SN12C, 26 µM (inactive); with SF-268 it was 13.9 µM (inactive); in the experiment on M14, 15.9 µM (inactive); in the experiment with UO-31 it was 37.8 µM (inactive); in the experiment on MCF7 it was 14.2 µM (inactive). Also, the GI50 in the experiment on HCC 2998 is 18.8 µM (inactive); in the experiment with EKVX, > 50 µM (inactive); in the experiment with KM12 it was 11.2 µM (inactive); in the experiment on SK-MEL-5, 17.2 µM (inactive); in the experiment with MDA-N, 22.6 µM (inactive); in the experiment with NCI/ADR-RES, > 50 µM (inactive). Moreover, the GI50 in the experiment on HT-29 is 18.3 µM (inactive); in the experiment on A549, > 50 µM (inactive).

Source of the values: ChEMBL document CHEMBL1201862, “PubChem BioAssay data set” (2004).
